The test system of this assay is rat kidney adenylate cyclase. In words: Peptide stimulation of adenylate cyclase activity in crude kidney cortical membranes. Format: biochemical. To be noted: 10 min at 37° C. On the procedure: Crude rats brain membranes were prepared as described by Nakamuta et al., supra, using 250-300 gm male Sprague-Dawley rats (Charles River Breeding Laboratories). Membranes were either used immediately or stored at -80° C. for no more than three days. Crude rat kidney membranes used for binding studies and adenylate cyclase assays were prepared as described by Schwartz, K. E., R. C. Orlowski and R. Marcus, Endocrinology 108:831 (1981) with a minor modification. The dissected kidney cortices were first homogenized briefly with a Polytron™ (Brinkman Instruments) at low speed ("5") before complete homogenization with a loose-fitting Wheaton Dounce homogenizer (American Scientific Products, MacGaw Park, IL, pestle "B"). Protein concentrations were determined using Coomassie Brilliant Blue G-250 (Sedmak, J. J. and S. E. Grossberg, Anal. Biochem. 83:544 (1977)) and crystallized BSA (Sigma Chemical Co., St. Louis, MO) as the standard. All preparations of kidney membranes were carried out at 4° C. and the membranes were used immediately for binding studies or adenylate cyclase assays.
Peptide stimulation of adenylate cyclase activity in crude kidney cortical membranes was measured using methods described by Marcus, R. and G. D. Aurbach, Biochim. Biophys. Acta 242:410 (1971). […]

Bridge positions count the residues as written; N and C are the ends. Peptide text beside a SMILES is read from it.

Turning to `CC(C)C[C@H](NC(=O)[C@H](CCCCN)NC(=O)[C@H](CCC(N)=O)NC(=O)[C@H](CC(C)C)NC(=O)[C@H](CCC(N)=O)NC(=O)[C@H](CCC(N)=O)NC(=O)[C@H](CC(C)C)NC(=O)[C@H](CC(C)C)NC(=O)[C@@H]1CSSC[C@H](N)C(=O)N[C@@H](CO)C(=O)N[C@@H](CC(N)=O)C(=O)N[C@@H](CC(C)C)C(=O)N[C@@H](CO)C(=O)N[C@@H]([C@@H](C)O)C(=O)N1)C(=O)N[C@@H](CC(C)C)C(=O)N[C@@H](CCC(N)=O)C(=O)N[C@@H](CCCCN)C(=O)N[C@@H](CC(C)C)C(=O)N[C@@H](CCCCN)C(=O)N[C@@H](CCC(N)=O)C(=O)N[C@@H](Cc1ccc(O)cc1)C(=O)N1CCC[C@H]1C(=O)N[C@@H](CCCNC(=N)N)C(=O)N[C@H](C(=O)N[C@@H](CC(N)=O)C(=O)N[C@H](C(=O)NCC(=O)N[C@@H](CO)C(=O)NCC(=O)N[C@H](C(=O)N1CCC[C@H]1C(N)=O)[C@@H](C)O)[C@@H](C)O)[C@@H](C)O` [MCT-II] (H-CSNLSTCLLQQLQKLLQKLKQYPRTNTGSGTP-NH2; disulfide 1-7; N-terminus assumed), the “Stimulation of adenylate cyclase over basal activity” value is listed as “stimulated adenylate cyclase over basal activity”.

The record behind these values is patent publication US4663309A, “Novel peptide hormones with calcitonin-like activity” (University Patents, Inc., priority 1985, dated 1987).
